We go through six compounds from article PMC7239764 (The FEBS journal, 2019).

The target of test [1] is T1, BaPDH (prephenate dehydrogenase from Bacillus anthracis) (Bacillus anthracis, UniProt Q81P63). The test can be described thus: biochemical. Format: biochemical. To be noted: for Km: 25°C, pH 7.5.
The target in test [2] is T1, BaPDH (prephenate dehydrogenase from Bacillus anthracis). Description: biochemical. Format: binding.
In test [3] the target is arogenate dehydrogenase from cyanobacteria Synechocystis sp. To be noted: cited from earlier work.
Test [4] has as its target AaPDH (prephenate dehydrogenase from Aquifex aeolicus). Particulars: cited from earlier work.
The target in test [5] is T1, BaPDH (prephenate dehydrogenase from Bacillus anthracis). Format: binding.

Values joined by “and” are separate entries in the source; they are usually repeats but may differ in a detail not shown here. Equal entries are not always repeated. Where two headings read alike, the source gives them in different places.

T1 sequence (Q81P63 1-378): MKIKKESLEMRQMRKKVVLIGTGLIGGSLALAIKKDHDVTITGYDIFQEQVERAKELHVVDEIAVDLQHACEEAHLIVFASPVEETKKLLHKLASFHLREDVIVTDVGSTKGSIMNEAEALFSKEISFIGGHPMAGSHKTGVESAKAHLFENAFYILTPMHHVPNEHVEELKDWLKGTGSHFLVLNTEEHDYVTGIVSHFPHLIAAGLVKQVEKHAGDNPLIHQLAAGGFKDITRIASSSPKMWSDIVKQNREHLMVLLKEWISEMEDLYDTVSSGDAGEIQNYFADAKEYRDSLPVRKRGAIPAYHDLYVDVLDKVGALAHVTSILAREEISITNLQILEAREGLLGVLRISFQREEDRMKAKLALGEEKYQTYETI

With `N[C@@H](Cc1ccc(O)cc1)C(=O)O` [Tyrosine, L-tyrosine], the figures for the inhibition constant (Ki) in test [1], in test [3] and in test [4] were 1.47 ± 0.07 µM, 70 µM and 15.9 ± 1.3 µM, respectively. For the same compound, the mode of inhibition entry in test [1] is given as “non-competitive inhibition”. For the same compound, the “Binding sites per protein dimer (N)” value in test [2] was 1.002 ± 0.001 and 0.928 ± 0.003. Besides, in test [2] (Kd), the Kd was 0.64 µM and 0.37 µM. Also, in test [5], the Tm came to 51 ± 1 °C.

In the case of `NC(=O)C1=CN([C@@H]2O[C@H](COP(=O)(O)OP(=O)(O)OC[C@H]3O[C@@H](n4cnc5c(N)ncnc54)[C@H](OP(=O)(O)O)[C@@H]3O)[C@@H](O)[C@H]2O)C=CC1` [NADPH], in test [5], the “Increase in Tm with the addition of the ligand(s)” value (from here on “Increase in Tm with the addition”) was “do not significantly change and ns”; the Tm was 40 ± 1 °C.

Take `NC(=O)c1ccc[n+]([C@@H]2O[C@H](COP(=O)([O-])OP(=O)(O)OC[C@H]3O[C@@H](n4cnc5c(N)ncnc54)[C@H](OP(=O)(O)O)[C@@H]3O)[C@@H](O)[C@H]2O)c1` [NADP^+]: the dissociation constant Kd entry in test [2] is “No detectable binding”. Besides, in test [5], the “Increase in Tm with the addition” value is “do not significantly change and ns”; the Tm turned out to be 41 ± 1 °C.

As to `NC(=O)c1ccc[n+]([C@@H]2O[C@H](COP(=O)([O-])OP(=O)(O)OC[C@H]3O[C@@H](n4cnc5c(N)ncnc54)[C@H](O)[C@@H]3O)[C@@H](O)[C@H]2O)c1` [NAD^+], the Km in test [1] was 237 ± 44 µM. The “Binding sites per protein dimer (N)” value in test [2] was 0.90 ± 0.01. Moreover, in test [5], the “Increase in Tm with the addition” value was “does not impart a significant change and ns”; the Tm was 41 ± 1 °C.

Turning to `NC(=O)C1=CN([C@@H]2O[C@H](COP(=O)(O)OP(=O)(O)OC[C@H]3O[C@@H](n4cnc5c(N)ncnc54)[C@H](O)[C@@H]3O)[C@@H](O)[C@H]2O)C=CC1` [NADH], in test [5], the “Increase in Tm with the addition” value is “do not significantly change and ns”; the Tm came to 43 ± 2 °C.

Take `O=C(O)C(=O)CC1(C(=O)O)C=CC(O)C=C1` (stereo not shown) [prephenate]: in test [1], the Km was 58 ± 9 µM.
